From the CheMixHub viscosity set
Values joined by “and” are separate entries in the source; they are usually repeats but may differ in a detail not shown here. Identical values can stand only once.

CCOC(=O)C(C)Br (stereo unspecified)
Settings | viscosity [mPa·s]
303.15 K, 101 kPa | 1.493

CC(=O)OC(C)C(C)C (stereo unspecified)
101.33 kPa
Settings | viscosity [mPa·s]
298.15 K | 0.795
303.15 K | 0.74
308.15 K | 0.69

CCCCCCOC(C)=O
101.33 kPa
Settings | viscosity [mPa·s]
293.15 K | 1.078
303.15 K | 0.782
313.15 K | 0.672

CCCCCCCC(=O)OCC
100 kPa
Settings | viscosity [mPa·s]
293.15 K | 1.549
303.15 K | 1.295
313.15 K | 1.095
323.15 K | 0.949

COC(C)=O
Settings | viscosity
293.15 K, 101 kPa | 0.411 mPa·s
303.15 K, 101.3 kPa | 0.3448 mPa·s and 0.3442 mPa·s and 0.3448 mPa·s
313.15 K, 101 kPa | 0.321 mPa·s and 0.3524 mPa·s and 0.331 mPa·s
313.15 K, 101.33 kPa | 0.331 mPa·s
318.15 K, 101 kPa | 0.299 mPa·s and 0.313 mPa·s

OCC1CCCCC1
Settings | viscosity [mPa·s]
293.15 K, 100 kPa | 37.75

OCCNCCO
viscosity
Settings | 293.15 K | 298.15 K | 303.15 K | 308.15 K | 313.15 K | 318.15 K | 323.15 K
101 kPa | 841.5 mPa·s and 742 mPa·s | – | 365.7 mPa·s and 379.3 mPa·s | 263.1 mPa·s | 179.8 mPa·s and 186.4 mPa·s | 134.5 mPa·s | 89.7 mPa·s and 111 mPa·s and 98.85 mPa·s
101.33 kPa | – | 566.3 mPa·s | – | – | – | – | –

CC[n+]1ccn(C)c1.O=C([O-])C(F)(F)F
101 kPa
Settings | viscosity [mPa·s]
293.15 K | 39.5
298.15 K | 32.9
303.15 K | 27.5
313.15 K | 19.9

C[N+](C)(CCCS(=O)(=O)O)C1CCCCC1.Cc1ccc(S(=O)(=O)[O-])cc1
101 kPa
Settings | viscosity [mPa·s]
303.15 K | 113700
308.15 K | 56930
313.15 K | 32650
318.15 K | 17830
323.15 K | 10190

COc1ccccc1N
viscosity
Settings | 298.15 K | 303.15 K | 308.15 K | 313.15 K | 318.15 K
100 kPa | 5.374 mPa·s | – | – | – | –
101 kPa | – | 4.924 mPa·s and 4.922 mPa·s and 4.922 mPa·s | 4.512 mPa·s and 4.512 mPa·s | 4.185 mPa·s and 4.185 mPa·s | 3.883 mPa·s and 3.883 mPa·s

OCCCOCCCO
101 kPa
Settings | viscosity [mPa·s]
293.15 K | 115
298.15 K | 78.2
303.15 K | 51.1
308.15 K | 37.2
313.15 K | 27.4
318.15 K | 20.8

CCC(C)=O
Settings | viscosity
293.15 K, 100 kPa | 0.4 mPa·s and 0.4152 mPa·s
298 K, 101.3 kPa | 0.475 mPa·s
298 K, 101.33 kPa | 0.3774 mPa·s
298.15 K, 100 kPa | 0.3992 mPa·s
298.15 K, 101.3 kPa | 0.407 mPa·s
298.15 K, 101.33 kPa | 0.384 mPa·s and 0.46 mPa·s and 0.39 mPa·s
299.15 K, 101.3 kPa | 0.401 mPa·s
303.15 K, 101.3 kPa | 0.364 mPa·s
303.15 K, 101.33 kPa | 0.366 mPa·s
307.35 K, 101.33 kPa | 0.35 mPa·s
308.15 K, 100 kPa | 0.344 mPa·s and 0.3666 mPa·s
308.15 K, 101.33 kPa | 0.342 mPa·s and 0.422 mPa·s
313.15 K, 101.3 kPa | 0.356 mPa·s
318 K, 101.3 kPa | 0.3429 mPa·s
318 K, 101.33 kPa | 0.3417 mPa·s
318.15 K, 101 kPa | 0.3194 mPa·s and 0.3213 mPa·s and 0.322 mPa·s
318.15 K, 101.3 kPa | 0.343 mPa·s
318.15 K, 101.33 kPa | 0.311 mPa·s and 0.397 mPa·s
323.15 K, 100 kPa | 0.31 mPa·s and 0.304 mPa·s
323.15 K, 101.3 kPa | 0.3327 mPa·s

C1CCCCC1
Settings | viscosity
293.15 K, 101 kPa | 0.972 mPa·s
293.15 K, 101.3 kPa | 0.986 mPa·s
298 K, 101 kPa | 0.99 mPa·s
298 K, 101.3 kPa | 0.883 mPa·s
298.15 K, 100 kPa | 0.8956 mPa·s and 0.8961 mPa·s
298.15 K, 101.3 kPa | 0.905 mPa·s and 0.8862 mPa·s
303 K, 101.33 kPa | 0.8141 mPa·s
303.15 K, 100 kPa | 0.82 mPa·s
303.15 K, 101.32 kPa | 0.826 mPa·s
303.75 K, 101.33 kPa | 0.8403 mPa·s
307.35 K, 101.33 kPa | 0.76 mPa·s
307.4 K, 101.33 kPa | 0.309 mPa·s
308 K, 101 kPa | 0.86 mPa·s
308.15 K, 100 kPa | 0.7316 mPa·s
308.15 K, 101.3 kPa | 0.7483 mPa·s and 0.7592 mPa·s
312.75 K, 101.33 kPa | 0.7277 mPa·s
313 K, 101.33 kPa | 0.7045 mPa·s
313.15 K, 100 kPa | 0.7 mPa·s
313.15 K, 101 kPa | 0.687 mPa·s and 0.6934 mPa·s
313.15 K, 101.3 kPa | 0.7003 mPa·s and 0.6886 mPa·s
313.15 K, 101.33 kPa | 0.682 mPa·s and 0.6995 mPa·s
318 K, 101.3 kPa | 0.6338 mPa·s and 0.6445 mPa·s
318 K, 101.33 kPa | 0.6338 mPa·s
318.15 K, 101 kPa | 0.649 mPa·s and 0.648 mPa·s and 0.655 mPa·s
321.15 K, 101.32 kPa | 0.5964 mPa·s
322.15 K, 101.32 kPa | 0.5901 mPa·s
323 K, 101 kPa | 0.6023 mPa·s and 0.6009 mPa·s
323 K, 101.33 kPa | 0.6126 mPa·s
323.15 K, 100 kPa | 0.6074 mPa·s and 0.6 mPa·s and 0.6077 mPa·s
323.15 K, 101 kPa | 0.607 mPa·s
323.15 K, 101.32 kPa | 0.5842 mPa·s

Cc1ccc(C)c(C)c1
102 kPa
Settings | viscosity [mPa·s]
293.15 K | 0.84
303.15 K | 0.731
313.15 K | 0.64
323.15 K | 0.567

CN(C)N
Settings | viscosity [mPa·s]
293.15 K, 101.3 kPa | 0.55

COCCOC
Settings | viscosity
298 K, 101.3 kPa | 0.432 mPa·s
298.15 K, 101 kPa | 0.45 mPa·s
298.15 K, 101.33 kPa | 0.4236 mPa·s
301.15 K, 100 kPa | 0.6 mPa·s and 0.7 mPa·s
308.15 K, 101 kPa | 0.445 mPa·s and 0.3812 mPa·s
308.15 K, 101.33 kPa | 0.3847 mPa·s
313.15 K, 101 kPa | 0.3628 mPa·s
318.15 K, 101 kPa | 0.3444 mPa·s
318.15 K, 101.33 kPa | 0.3496 mPa·s
323.15 K, 101 kPa | 0.3284 mPa·s

CCCC[N+]1(C)CCCC1.FC(F)(F)C(F)(F)[P-](F)(F)(F)(C(F)(F)C(F)(F)F)C(F)(F)C(F)(F)F
101 kPa
Settings | viscosity [mPa·s]
298.15 K | 283.4
303.15 K | 214
308.15 K | 166.2
313.15 K | 122.1
318.15 K | 100.3
323.15 K | 80.1

CC(CC(C)(C)C)CP(=O)([O-])CC(C)CC(C)(C)C.CCCC[P+](C)(CCCC)CCCC (stereo unspecified)
Settings | viscosity [mPa·s]
323.15 K, 101 kPa | 283

c1ccc2ncccc2c1
Settings | viscosity
293.15 K, 101 kPa | 3.64 mPa·s
293.25 K, 101 kPa | 3.635 mPa·s
298 K, 101.3 kPa | 3.475 mPa·s
298.15 K, 101.33 kPa | 3.36 mPa·s
303 K, 101.3 kPa | 3.092 mPa·s
303.05 K, 101 kPa | 2.943 mPa·s
303.15 K, 101 kPa | 2.94 mPa·s and 3.1 mPa·s
303.15 K, 101.33 kPa | 3.01 mPa·s
308 K, 101.3 kPa | 2.777 mPa·s
308.15 K, 101.33 kPa | 2.68 mPa·s
313 K, 101.3 kPa | 2.489 mPa·s
313.15 K, 101 kPa | 2.385 mPa·s and 2.384 mPa·s
313.15 K, 101.33 kPa | 2.43 mPa·s
318 K, 101.3 kPa | 2.243 mPa·s and 2.242 mPa·s
318.15 K, 101.33 kPa | 2.21 mPa·s
323.15 K, 101.33 kPa | 2.03 mPa·s

CCCCOCC(C)O (stereo unspecified)
101.33 kPa
Settings | viscosity [mPa·s]
298.15 K | 2.855
308.15 K | 2.142
318.15 K | 1.655
